Assay results reported in US4939132A, “Novel 5-alkylsulfonylsalicylanilides and microbiocidal compositions for controlling the growth of microorganisms” (The Research Foundation of State University of New York, priority 1985, dated 1990).
In brackets after ≈: the same amount, converted by molar mass. Read-outs that look alike come from different tables or passages of the source.

Key:
[1] = test system: A. viscosus; assay: In vitro plaque growth inhibition (bovine enamel slabs), A. viscosus; format: cell-based, Actinomyces viscosus; details: for Total Growth ID50 (50% growth inhibition dosage): 2 min contact, about 24 h incubation, aerobic
Protocol: (§1) Various compositions prepared in accord with the above examples were tested in vitro for plaque inhibition in comparison with prior art compounds. The test used is set forth in detail in Comparison of Antiplaque Agents Using an In Vitro Assay Reflecting Oral Conditions by R. T. Evans et al, Journal of Dental Research, June 1977.
(§2) In summary incisor teeth from bovine mandibles, obtained immediately after slaughter, are cut into 4×8 mm enamel slabs and sterilized in a 0.15M NaCl solution buffered at a pH of 7.5 with 0.02M sodium phosphate (PBS soln). Before use the slabs are coated with sterile saliva and then rinsed twice in sterile PBS. The slabs are then placed in small plastic petri dishes containing various concentrations of the compositions to be tested. The test solution used in accordance is a solution of the test compound in a mixture of 20% by volume of ethanol, 40% by volume of propylene glycol and 40% by volume of a pH 8 aqueous buffer solution containing mono and di sodium phosphates. The slabs are left in the solution of the test compound for two minutes and then rinsed in sterile PBS solution. After rinsing, each slab is placed in a 10×75 mm cotton stoppered glass culture tube containing 1 ml of sucrose-broth culture medium which is then innoculated with a 24 hour culture of the desired microorganism standardized to an optical density (OD)540 of 0.75 for A. viscosus and S. mutans. […] of the inoculation medium is used. A. viscosus is incubated under aerobic conditions and the S. mutans is incubated under anaerobic conditions (5% CO2 and 95% H2). After incubation for about 24 hours the nonadherent organisms are removed and the tube is rinsed twice with 0.5 ml of PBS and the washings combined with the nonadherent organisms.
(§3) The tooth slabs are then transferred to 1 ml of 0.1 N NaOH and 1 ml of 0.1N NaOH is also added to the glass culture tubes. The slabs and tubes are then sonically agitated, if necessary to suspend the adherent organisms. The optical density of each of the three fractions is then measured on a spectophotometer. The tests are repeated with varying concentrations of the compositions being tested until growth inhibition curves can be developed. The 50% growth inhibition dosages (ID50) are then determined with a reliability of +or -80% or better. The compounds tested are samples (a)-(e) as follows: (a) tribromosalan; (b) 5-n-decanoyl-4'-nitrosalicylanilide; (c) 5-n-decylsulfonyl-4'-nitro-salicylanilide; (d) 5-n-decylsulfonyl-4'-trifluoromethyl-salicylanilide; and, (e) 5-n-decylsulfonyl-3'-trifluoromethyl-salicylanilide.

[2] = test system: S. mutans; assay: In vitro plaque growth inhibition (bovine enamel slabs), S. mutans; format: cell-based, Streptococcus mutans; details: for Total Growth ID50 (50% growth inhibition dosage): 2 min contact, about 24 h incubation, anaerobic
Protocol: as §1, §2, §3

[3] = test system: S. mutans; assay: Tube dilution assay (Macro-Broth Dilution Method), S. mutans; format: cell-based; details: Streptococcus mutans, read-out: Minimal Inhibitory Concentration
Protocol: (§4) Various compositions prepared in accord with the above examples were tested in vitro for minimal concentration to inhibit or kill organisms in comparison to prior art compounds. The test used is set forth in detail in Manual of Clinical Microbiology, third edition, pages 456-475 (Macro-BrothDilution Method), 1980, American society for microbiology.
(§5) In the test procedure serial dilutions of the antimicrobic compound are innoculated with the organism to be inhibited and incubated. The minimum inhibitory concentration (MIC) is the lowest concentration of antimicrobic compound that is achieved without visible growth of the organism. The test method comprises preparing a stock solution of antimicrobic compound and diluting it in a Meuller-Hinton broth. A series of sterile 13 by 100 mm, cotton-plugged, test tubes are set out wherein 2 ml of the broth diluted antimicrobic solution (working solution) is added to the first tube and to each remaining tube is added 1.0 ml of non-antimicrobic containing broth. 1.0 ml of working solution from the first tube is transferred to the second tube and thoroughly mixed therewith. Thereafter, 1.0 ml of the mixed solution is transferred to the third tube and mixed with the process continuing through the dilution steps desired. The tubes are then incubated at 35° C. for 16 to 20 hours. […] Various antimicrobic compounds designated (a)-(i) were tested for minimum inhibitory concentration in accord with the above procedure. Compounds (a)-(e) correspond to compounds (a)-(e) of example 9. Compounds (f)-(i) are as follow s: (f) 5-n -octylsulfonyl-4'-nitrosalicylanilide; (g) 5-n-decylsulfony-4'-bromosalicylanilide; (h) 5-n-hexylsulfonyl-4'-bromosalicylanilide; and, (i) 5-n-dodecylsulfonyl-4'-trifluoromethyl salicylanilide.

[4] = test system: A. viscosus; assay: Tube dilution assay (Macro-Broth Dilution Method), A. viscosus; format: cell-based; details: Actinomyces viscosus, read-out: Minimal Inhibitory Concentration
Protocol: as §4, §5

[5] = test system: S. aureus; assay: Tube dilution assay (Macro-Broth Dilution Method), S. aureus; format: cell-based; details: Staphylococcus aureus, Mueller-Hinton broth, 35° C., 16 to 20 hours, read-out: Minimal Inhibitory Concentration
Protocol: as §4, §5

[6] = test system: S. pyogenes; assay: Tube dilution assay (Macro-Broth Dilution Method), S. pyogenes; format: cell-based; details: Streptococcus pyogenes, read-out: Minimal Inhibitory Concentration
Protocol: as §4, §5

[7] = test system: S. epidermidis; assay: Tube dilution assay (Macro-Broth Dilution Method), S. epidermidis; format: cell-based; details: Staphylococcus epidermidis, read-out: Minimal Inhibitory Concentration
Protocol: as §4, §5

[8] = Acute oral toxicity, single dose; format: in vivo; details: rat, in vivo; single dose oral route, Sprague-Dawley white rats
Protocol: (§6) Twelve female white rats averaging 250-300 grams in weight were fasted overnight and divided into three groups of four animals each. In one group each animal received, by gavage tube, 4 ml of an aqueous solution of 1% methylcellulose, the drug delivery vehicle. This group was the control group. The remaining two groups received doses of 750 and 2500 mg/kg respectively of 5-n-decylsulfonyl-4'-trifluoromethyl-salicylanilide in 4-ml aqueous 1% methyl cellulose suspension.
(§7) Within the first week following this single dose only one animal died.
(§8) An autopsy was performed and the cause of death was attributed to a punctured thoracic cavity during administration of the drug.

[9] = test system: white rats; assay: Acute oral toxicity, single dose; format: in vivo; details: 2,500 mg/kg dose group, eighth day; attributed to a punctured thoracic cavity during administration
Protocol: as §6, §7, §8

[10] = test system: man; details: in man; cited from earlier work
[11] = S. mutans, Mueller-Hinton broth, 35° C., 16 to 20 hours
[12] = A. viscosus, Mueller-Hinton broth, 35° C., 16 to 20 hours
[13] = S. pyogenes, Mueller-Hinton broth, 35° C., 16 to 20 hours
[14] = S. epidermidis, Mueller-Hinton broth, 35° C., 16 to 20 hours

Molecule | Total Growth ID50 (50% growth inhibition dosage) [1] | Maximum % Inhibition ([1]; at 0.2%) | Total Growth ID50 (50% growth inhibition dosage) [2] | Maximum % Inhibition ([2]; at 0.2%) | MIC [3] | MIC [4] | MIC [5] | MIC [6] | MIC [7] | MIC [3, 11] | MIC [4, 12] | MIC [6, 13] | MIC [7, 14] | LD50 [8] | deaths [9] | Maximum % Inhibition ([1]; at 0.1%) | Maximum % Inhibition ([2]; at 0.1%) | allergic reactions [10]
O=C(Nc1ccc(Br)cc1)c1cc(Br)cc(Br)c1O [(a), tribromosalan, reference compound] | 8.8 × 10^-4 | 53% | 1.2 × 10^-7 | 46% | 1 µg/mL (≈ 2.22 µM) | 0.5 µg/mL (≈ 1.11 µM) | 1 µg/mL (≈ 2.22 µM) | 0.5 µg/mL (≈ 1.11 µM) | 0.5 µg/mL (≈ 1.11 µM) |  |  |  |  |  |  |  |  | 
CCCCCCCCCC(=O)c1ccc(O)c(C(=O)Nc2ccc([N+](=O)[O-])cc2)c1 [(b), 5-n-decanoyl-4'-nitrosalicylanilide, reference compound] | 1.1 × 10^-4 | 90% | 2.3 × 10^-2 | 59% |  |  | 0.1 µg/mL (≈ 0.242 µM) |  |  | 5 µg/mL (≈ 12.1 µM) | 0.05 µg/mL (≈ 0.121 µM) | 0.1 µg/mL (≈ 0.242 µM) | 0.1 µg/mL (≈ 0.242 µM) |  |  |  |  | 
CCCCCCCCCCS(=O)(=O)c1ccc(O)c(C(=O)Nc2ccc([N+](=O)[O-])cc2)c1 [(c), 5-n-decylsulfonyl-4'-nitro-salicylanilide] | 2.3 × 10^-4 | 93% | 1.9 × 10^-4 | 80% |  |  | 0.5 µg/mL (≈ 1.08 µM) |  |  | 0.5 µg/mL (≈ 1.08 µM) | 0.5 µg/mL (≈ 1.08 µM) | 0.5 µg/mL (≈ 1.08 µM) | 0.5 µg/mL (≈ 1.08 µM) |  |  |  |  | 
CCCCCCCCCCS(=O)(=O)c1ccc(O)c(C(=O)Nc2ccc(C(F)(F)F)cc2)c1 [(d), 5-n-decylsulfonyl-4'-trifluoromethyl-salicylanilide] | 0.9 × 10^-4 | 95% | 1.9 × 10^-3 | 76% |  |  | 0.5 µg/mL (≈ 1.03 µM) |  |  | 0.5 µg/mL (≈ 1.03 µM) | 0.1 µg/mL (≈ 0.206 µM) | 0.5 µg/mL (≈ 1.03 µM) | 0.1 µg/mL (≈ 0.206 µM) | > 2500 mg/kg | a second animal died |  |  | 
CCCCCCCCCCS(=O)(=O)c1ccc(O)c(C(=O)Nc2cccc(C(F)(F)F)c2)c1 [(e), 5-n-decylsulfonyl-3'-trifluoromethyl-salicylanilide] | 6.8 × 10^-4 |  | 2.2 × 10^-3 |  |  |  | 20 µg/mL (≈ 41.2 µM) |  |  | 5 µg/mL (≈ 10.3 µM) | 0.5 µg/mL (≈ 1.03 µM) | 0.5 µg/mL (≈ 1.03 µM) | 0.5 µg/mL (≈ 1.03 µM) |  |  | 83% | 47% | 
CCCCCCCCS(=O)(=O)c1ccc(O)c(C(=O)Nc2ccc([N+](=O)[O-])cc2)c1 [(f), 5-n-octylsulfonyl-4'-nitrosalicylanilide] |  |  |  |  |  |  | 5 µg/mL (≈ 11.5 µM) |  |  | 0.5 µg/mL (≈ 1.15 µM) | 1 µg/mL (≈ 2.3 µM) | 5 µg/mL (≈ 11.5 µM) | 5 µg/mL (≈ 11.5 µM) |  |  |  |  | 
CCCCCCCCCCS(=O)(=O)c1ccc(O)c(C(=O)Nc2ccc(Br)cc2)c1 [(g), 5-n-decylsulfony-4'-bromosalicylanilide] |  |  |  |  |  |  | 5 µg/mL (≈ 10.1 µM) |  |  | 1 µg/mL (≈ 2.01 µM) | 0.5 µg/mL (≈ 1.01 µM) | 0.5 µg/mL (≈ 1.01 µM) | 0.5 µg/mL (≈ 1.01 µM) |  |  |  |  | 
CCCCCCS(=O)(=O)c1ccc(O)c(C(=O)Nc2ccc(Br)cc2)c1 [(h), 5-n-hexylsulfonyl-4'-bromosalicylanilide] |  |  |  |  |  |  | 5 µg/mL (≈ 11.4 µM) |  |  |  | 5 µg/mL (≈ 11.4 µM) | 5 µg/mL (≈ 11.4 µM) | 10 µg/mL (≈ 22.7 µM) |  |  |  |  | 
CCCCCCCCCCCCS(=O)(=O)c1ccc(O)c(C(=O)Nc2ccc(C(F)(F)F)cc2)c1 [(i), 5-n-dodecylsulfonyl-4'-trifluoromethyl salicylanilide] |  |  |  |  |  |  | 0.5 µg/mL (≈ 0.973 µM) |  |  |  | 0.05 µg/mL (≈ 0.0973 µM) | 0.5 µg/mL (≈ 0.973 µM) | 0.1 µg/mL (≈ 0.195 µM) |  |  |  |  | 
tetrachlorosalicylanilide |  |  |  |  |  |  |  |  |  |  |  |  |  |  |  |  |  | has been shown to produce allergic reactions in man
